PMC8584989 (International Journal of Molecular Sciences, 2021)
Read-outs that look alike come from different tables or passages of the source.

Legend:
CYP2D6 = molecular target: T1, CYP2D6 (Homo sapiens, UniProt P10635); assay: Vivid CYP450 Screening Kit, recombinant CYP2D6; type: in vitro ADME
T1 construct: purchased Thermo Fisher Scientific
Method: (§1) CYP inhibitory assay was performed using Vivid CYP450 screening kit as described previously. The kits consist of microsomal fraction containing human CYP isoforms, human CYP reductase and in several cases cytochrome b5. Experiments were performed following the manufacturer’s protocol on black 96-well plates using kinetic mode. […] Then, the master mix (CYP isoenzyme with an NADPH regeneration system in buffer) was added in each well and plate was pre-incubated for 10 min. The reaction was started with the mixture of NADP^+ and Vivid substrate and the fluorescence of samples was measured in 1 min interval for 60 min using an Infinite M200 Pro microplate reader (Tecan, Männedorf, Switzerland). Data from linear phase (15 min) were used for data evaluation.

[1] = XTT proliferation / drug combination assay; conditions: human
[2] = MTT proliferation / drug combination assay; conditions: human
[3] = test system: patient-derived NSCLC explants; assay: Daunorubicin and mitoxantrone accumulation in primary NSCLC explants; type: cell-based, human; conditions: six primary cultures; predominantly those with higher transporters' expression levels
Description: Tumor biopsies were donated by NSCLC patients at the Department of Cardiac Surgery, University Hospital Hradec Králové following written informed consent approved by the University Hospital Ethics Committee (study no. 202002 […]). Subjects' characteristics are shown in Supplementary Materials (Table S1). The NSCLC samples were collected immediately after the lung lobectomy and excision of tumor by the pathologist, which was followed by the isolation of cancer cells using a modified procedure based on previously published protocols. The tumor tissues were minced in small pieces around 2-5 mm in diameter using a scalpel. To liberate the cells from tissues, the minced pieces were transferred into the prewarmed 0.1% collagenase in 1 × MEM and placed in the water bath for 30 min. Following the incubation, BSA in MEM was added and cells were sieved through a 40 μm-sized cell strainer. Then, the solution was centrifuged at 200× g for 5 min. The pellet was resuspended with a BSA solution in MEM. […] The cells there trypsinized on ice, resuspended with 2% FBS in cold PBS solution and then fluorescence was detected using flow cytometer (BD FACSCanto II, Allschwil, Switzerland). […] For data presentation, the ratios of relative fluorescence units (RFUs) from treated samples to RFUs from vehicle-treated (control) cells were computed generating “relative substrate accumulation”.

[4] = test system: KB drug resistant cell lines; conditions: in vitro KB drug resistant cell lines; cited from earlier work
HL60-ABCC1 cells = assay: XTT proliferation assay (comparative viability); type: cell-based; conditions: single drug, 48 h
Method: These colorimetric assays were used in various studies presented in this paper (prior induction studies, MDR reversal experiments and comparative viability assays) and were performed as reported previously. […] In MTT experiments, cells were seeded on a 96-well culture plate at densities (in number of cells/well) of 1.3 × 10^4 for MDCKII-par, MDCKII-ABCB1 and MDCKII-ABCG2; 1.2 × 10^4 for A431-par, A431-ABCB1, A431-ABCG2 and A431-ABCC1; 1.2 × 10^4 for NCI-H1299; 1.0 × 10^4 for A459; 2.0 × 10^4 for Caco-2; 5.0 × 10^4 for LS174T; and 1.0 × 10^4 for primary NSCLC explants. On the other hand, for XTT cells were seeded with densities 2.0 × 10^4 for HL60-par, HL60-ABCB1, HL60-ABCG2 and HL60-ABCC1 cells/well on 96-well plates. […] Following 48 h incubation with drugs, Opti-MEM solutions of MTT or XTT (1 mg/mL) with phenazine methosulfate solution (7.50 μg/mL; only for XTT) was added and the cells were incubated for 1 h with the exception of HL60s that were incubated for 5 h.

[5] = XTT proliferation / drug combination assay; conditions: human; remark: listed apart in the source
CYP2C8 = molecular target: T2, CYP2C8 (Homo sapiens, UniProt P10632); assay: Vivid CYP450 Screening Kit, recombinant CYP2C8; type: in vitro ADME; conditions: recombinant enzyme; read-out: CYP2C8 inhibition IC50
T2 construct: purchased Thermo Fisher Scientific
Method: as §1

CYP2C9 = molecular target: T3, CYP2C9 (Homo sapiens, UniProt P11712); assay: Vivid CYP450 Screening Kit, recombinant CYP2C9; type: in vitro ADME; conditions: recombinant enzyme; read-out: CYP2C9 inhibition IC50
T3 construct: purchased Thermo Fisher Scientific
Method: as §1

CYP2B6 = molecular target: T4, CYP2B6 (Homo sapiens, UniProt P20813); assay: Vivid CYP450 Screening Kit, recombinant CYP2B6; type: in vitro ADME; conditions: recombinant enzyme; read-out: CYP2B6 inhibition IC50
T4 construct: purchased Thermo Fisher Scientific
Method: as §1

ABCC1 = ABCC1 (Homo sapiens, UniProt P33527); assay: Inhibitory accumulation assay in MDCKII-ABCC1 cells; type: cell-based
Method: Accumulation assays were performed as described previously. […] The daunorubicin and mitoxantrone accumulation assays were performed in above mentioned cell lines and were also adopted to primary NSCLC cultures. […] Cells were incubated up to 70-80% confluence for approximately 24 h. […] The cells there trypsinized on ice, resuspended with 2% FBS in cold PBS solution and then fluorescence was detected using flow cytometer (BD FACSCanto II, Allschwil, Switzerland). […] For data presentation, the ratios of relative fluorescence units (RFUs) from treated samples to RFUs from vehicle-treated (control) cells were computed generating “relative substrate accumulation”.

CYP1A2 = molecular target: T5, CYP1A2 (Homo sapiens, UniProt P05177); assay: Vivid CYP450 Screening Kit, recombinant CYP1A2; type: in vitro ADME
T5 construct: purchased Thermo Fisher Scientific
Method: as §1

Sequence of ABCC1 (P33527 whole entry): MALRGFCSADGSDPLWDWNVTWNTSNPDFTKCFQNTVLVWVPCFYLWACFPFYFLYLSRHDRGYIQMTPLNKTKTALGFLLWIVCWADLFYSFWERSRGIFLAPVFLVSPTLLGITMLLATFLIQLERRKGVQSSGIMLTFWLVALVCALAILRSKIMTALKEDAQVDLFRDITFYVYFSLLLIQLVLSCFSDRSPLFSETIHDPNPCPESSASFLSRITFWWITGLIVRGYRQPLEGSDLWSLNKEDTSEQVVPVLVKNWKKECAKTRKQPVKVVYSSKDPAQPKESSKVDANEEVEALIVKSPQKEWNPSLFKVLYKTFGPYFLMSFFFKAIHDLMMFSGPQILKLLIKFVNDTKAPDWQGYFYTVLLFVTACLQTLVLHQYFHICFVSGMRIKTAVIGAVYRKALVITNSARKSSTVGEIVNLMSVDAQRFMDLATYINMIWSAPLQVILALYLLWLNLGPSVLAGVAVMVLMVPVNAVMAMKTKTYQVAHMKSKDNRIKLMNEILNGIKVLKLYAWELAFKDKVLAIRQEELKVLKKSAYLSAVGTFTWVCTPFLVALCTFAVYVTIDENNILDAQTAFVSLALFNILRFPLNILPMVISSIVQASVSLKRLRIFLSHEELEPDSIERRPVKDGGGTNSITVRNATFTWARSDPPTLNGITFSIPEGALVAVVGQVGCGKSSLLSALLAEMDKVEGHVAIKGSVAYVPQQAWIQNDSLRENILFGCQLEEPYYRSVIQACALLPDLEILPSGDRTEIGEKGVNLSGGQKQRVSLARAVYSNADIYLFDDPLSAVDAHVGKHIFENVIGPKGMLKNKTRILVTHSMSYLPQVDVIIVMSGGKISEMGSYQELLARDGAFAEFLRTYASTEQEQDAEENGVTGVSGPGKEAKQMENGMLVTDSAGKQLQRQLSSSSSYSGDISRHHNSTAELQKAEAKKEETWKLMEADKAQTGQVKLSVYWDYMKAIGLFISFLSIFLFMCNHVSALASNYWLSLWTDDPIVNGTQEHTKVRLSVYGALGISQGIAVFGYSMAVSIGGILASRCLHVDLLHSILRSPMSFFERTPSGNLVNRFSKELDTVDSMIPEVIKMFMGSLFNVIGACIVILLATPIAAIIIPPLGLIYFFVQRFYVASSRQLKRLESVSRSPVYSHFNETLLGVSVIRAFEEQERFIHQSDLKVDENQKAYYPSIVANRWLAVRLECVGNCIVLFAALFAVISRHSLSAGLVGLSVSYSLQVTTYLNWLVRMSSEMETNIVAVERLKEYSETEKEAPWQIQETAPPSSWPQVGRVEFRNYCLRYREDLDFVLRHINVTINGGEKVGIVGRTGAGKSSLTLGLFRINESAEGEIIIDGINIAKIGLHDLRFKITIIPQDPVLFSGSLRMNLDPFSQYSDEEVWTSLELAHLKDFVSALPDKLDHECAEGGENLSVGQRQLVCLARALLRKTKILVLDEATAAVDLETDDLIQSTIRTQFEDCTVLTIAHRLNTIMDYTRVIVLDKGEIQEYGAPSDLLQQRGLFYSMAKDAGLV
T3 sequence (P11712 whole entry): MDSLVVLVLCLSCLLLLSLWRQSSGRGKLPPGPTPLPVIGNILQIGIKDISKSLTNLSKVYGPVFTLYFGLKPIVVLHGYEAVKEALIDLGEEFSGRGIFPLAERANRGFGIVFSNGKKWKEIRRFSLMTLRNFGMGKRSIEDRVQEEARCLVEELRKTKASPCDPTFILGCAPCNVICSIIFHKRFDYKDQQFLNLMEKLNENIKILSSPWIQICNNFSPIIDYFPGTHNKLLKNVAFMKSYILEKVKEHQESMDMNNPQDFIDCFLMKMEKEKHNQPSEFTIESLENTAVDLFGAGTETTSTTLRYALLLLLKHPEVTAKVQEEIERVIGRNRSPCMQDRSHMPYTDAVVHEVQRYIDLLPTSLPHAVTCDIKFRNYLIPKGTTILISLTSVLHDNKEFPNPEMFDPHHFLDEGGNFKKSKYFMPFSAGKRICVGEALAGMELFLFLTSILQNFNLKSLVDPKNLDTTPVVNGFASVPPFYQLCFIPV
T4 sequence (P20813 whole entry): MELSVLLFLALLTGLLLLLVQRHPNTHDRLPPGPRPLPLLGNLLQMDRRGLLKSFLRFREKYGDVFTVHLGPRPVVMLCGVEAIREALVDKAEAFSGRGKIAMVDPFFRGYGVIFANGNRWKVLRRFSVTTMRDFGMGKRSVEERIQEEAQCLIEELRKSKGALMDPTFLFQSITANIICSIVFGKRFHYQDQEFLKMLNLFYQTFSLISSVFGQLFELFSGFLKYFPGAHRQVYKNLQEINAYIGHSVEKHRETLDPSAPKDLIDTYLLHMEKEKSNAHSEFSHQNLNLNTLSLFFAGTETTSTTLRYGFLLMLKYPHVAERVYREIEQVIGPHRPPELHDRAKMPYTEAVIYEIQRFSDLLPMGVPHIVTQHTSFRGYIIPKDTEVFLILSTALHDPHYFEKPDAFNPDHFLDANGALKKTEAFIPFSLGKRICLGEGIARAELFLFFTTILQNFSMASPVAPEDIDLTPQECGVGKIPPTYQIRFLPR
T2 sequence (P10632 whole entry): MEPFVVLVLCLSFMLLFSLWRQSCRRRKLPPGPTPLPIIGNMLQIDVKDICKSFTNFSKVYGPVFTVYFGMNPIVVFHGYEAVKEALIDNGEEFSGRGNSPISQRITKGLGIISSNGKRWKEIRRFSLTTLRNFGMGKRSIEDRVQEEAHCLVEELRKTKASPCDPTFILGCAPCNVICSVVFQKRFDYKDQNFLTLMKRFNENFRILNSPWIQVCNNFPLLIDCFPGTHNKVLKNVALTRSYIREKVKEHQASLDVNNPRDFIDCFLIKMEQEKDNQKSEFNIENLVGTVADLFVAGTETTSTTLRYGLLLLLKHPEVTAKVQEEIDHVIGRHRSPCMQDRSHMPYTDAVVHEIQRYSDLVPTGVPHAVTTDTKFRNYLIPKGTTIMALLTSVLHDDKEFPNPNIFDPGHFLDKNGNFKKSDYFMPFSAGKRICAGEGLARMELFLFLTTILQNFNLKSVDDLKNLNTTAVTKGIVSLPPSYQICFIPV
T5 sequence (P05177 2-516 limits assumed): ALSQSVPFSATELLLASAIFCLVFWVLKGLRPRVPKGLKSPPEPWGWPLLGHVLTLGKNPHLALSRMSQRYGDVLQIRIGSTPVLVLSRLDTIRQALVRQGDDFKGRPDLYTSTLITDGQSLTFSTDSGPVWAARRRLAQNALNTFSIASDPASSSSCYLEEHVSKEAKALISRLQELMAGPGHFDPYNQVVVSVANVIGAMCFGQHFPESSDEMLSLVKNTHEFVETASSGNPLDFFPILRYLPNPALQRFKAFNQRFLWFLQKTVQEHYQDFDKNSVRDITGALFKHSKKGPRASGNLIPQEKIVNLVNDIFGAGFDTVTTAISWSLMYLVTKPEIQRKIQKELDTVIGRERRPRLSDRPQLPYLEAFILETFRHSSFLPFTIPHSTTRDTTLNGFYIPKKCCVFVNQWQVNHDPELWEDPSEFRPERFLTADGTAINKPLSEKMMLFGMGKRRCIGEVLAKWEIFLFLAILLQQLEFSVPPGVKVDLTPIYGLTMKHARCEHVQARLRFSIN
T1 sequence (P10635 whole entry): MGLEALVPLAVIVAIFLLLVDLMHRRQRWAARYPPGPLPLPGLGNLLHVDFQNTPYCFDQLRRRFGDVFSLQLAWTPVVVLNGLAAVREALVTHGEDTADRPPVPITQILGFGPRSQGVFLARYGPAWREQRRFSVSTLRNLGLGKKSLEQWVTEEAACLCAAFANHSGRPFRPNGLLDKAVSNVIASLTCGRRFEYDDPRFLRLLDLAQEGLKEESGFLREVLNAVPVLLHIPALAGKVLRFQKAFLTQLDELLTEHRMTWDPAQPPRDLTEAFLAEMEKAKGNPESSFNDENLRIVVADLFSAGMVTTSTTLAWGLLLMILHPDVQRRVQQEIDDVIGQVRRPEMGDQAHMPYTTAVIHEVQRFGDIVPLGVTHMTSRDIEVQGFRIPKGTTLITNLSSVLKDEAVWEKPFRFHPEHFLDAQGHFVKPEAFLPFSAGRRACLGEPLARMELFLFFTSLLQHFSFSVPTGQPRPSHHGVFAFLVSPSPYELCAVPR

CN1CCC(COc2cnc(-c3cccc(Cn4nc(-c5cccc(C#N)c5)ccc4=O)c3)nc2)CC1 [tepotinib, Tepotinib]
IC50 (CYP2D6): > 50 µM
IC50 at 48 h [1]: 19.6 µM
IC50 at 48 h [2]: 16.4 µM
Effect on accumulation of mitoxantrone and daunorubicin [3]: significantly increased the accumulation of model anticancer drugs in some of the primary samples
Effect on anticancer effect of paclitaxel and vincristine [4]: potentiate the anticancer effect of paclitaxel and vincristine
IC50 (HL60-ABCC1 cells): 20 µM
IC50 at 48 h [5]: 19.4 µM
IC50 (CYP2C8): 20.4 µM
IC50 (CYP2C9): 1.7 µM
IC50 (CYP2B6): > 50 µM
IC50 (ABCC1; 2 µM calcein AM, read-out: IC50, relative calceinAM accumulation): 24.5 µM
IC50 (ABCC1; 2 µM daunorubicin, 1 h, read-out: IC50, relative daunorubicin accumulation): > 50 µM
IC50 (CYP1A2): > 50 µM
